Consider one compound from patent US20260335299A1, “SUBSTITUTED OXOISOINDOLINYL PIPERIDINE-2,6-DIONE COMPOUND AS ANTICANCER AGENT” (BRISTOL-MYERS SQUIBB COMPANY, priority 2023, published 2026).

Common to all, as to type: cell-based
One test deals with IKZF1 Ikaros (Homo sapiens, UniProt Q13422+Q96SW2). The test can be described thus: Human CD8+ T Cell Reprogramming (Degradation) Assay (Ikaros). Also on record: Cryopreserved healthy donor human peripheral blood mononuclear cells (PBMC); endogenous in cells; host or cells: CD8+ T cells within healthy donor human PBMC. To be noted: CD8+ T cells, human PBMC, 24 h. As for the experimental part:
(§1) Cryopreserved healthy donor human peripheral blood mononuclear cells (PBMC) from healthy donors were thawed and seeded at 500,000 cells/well of 96-well round bottom plates in RPMI 1640 media (Gibco) supplemented with 10% FBS, Pen/Strep (Gibco), MEM-NEAA (Gibco), and sodium pyruvate (Gibco). Cells were treated with titrated doses of compound for 24 hours at 37° C., 5% CO2 before analyzing by flow cytometry.
(§2) For flow cytometry staining, cells were washed twice with flow cytometry staining buffer (Thermo Fisher) and incubated in Human Tru-stain Fc block (Biolegend) for 10 minutes before adding eFluor780 viability dye (Thermo Fisher) and surface marker antibody cocktail containing LD-eFluor780, CD3-BUV-395, CD4-BUV805, CD8-FITC, and CD25-BV605 for 30 minutes at 4° C. Cells were then fixed and permeabilized by incubation with permeabilization buffer (eBioscience FoxP3 buffer set 00-5523-00) for 30 minutes at 4° C. as per the kit manufacturer's instructions. Cells were washed twice with the Perm/Wash buffer supplied in the kit as per the manufacturer's instructions and incubated overnight at 4° C. with an intracellular antibody cocktail comprised of antibodies specific for the transcription factors (i.e., Foxp3-BV421, HELIOS-PE-Cy7, EOS-PE, IKAROS-PECF594, AIOLOS-AF647). Cells were washed twice with Perm/Wash buffer and resuspended in flow cytometry staining buffer (Thermo Fisher) prior to acquisition. Sample acquisition and analysis was performed using a BD LSRFortessa (BD Biosciences) flow cytometer. Single-stain controls for each fluorochrome were prepared using UltraComp eBead Compensation Beads (Thermo Fisher). Data were analyzed using FlowJo version 10 and GraphPad Prism Software.
(§3) Table D-1 lists the maximum observed degradation of the IKZF1 protein and IKZF3 protein as measured in the Human CD8^+ T Cell Reprogramming assay. The results in Table D-1 were rounded to two digits. In the Human CD8^+ T Cell Reprogramming assay, a value of 100% indicated no detectable protein remaining or complete degradation of the protein; and a value of 0% indicated no detectable degradation of the protein by the test compound.

Test [1] deals with T1, IKZF3 Aiolos (Homo sapiens, UniProt Q96SW2+Q9UKT9). The test can be described thus: Human CD8+ T Cell Reprogramming (Degradation) Assay (Aiolos). Also on record: Cryopreserved healthy donor human peripheral blood mononuclear cells (PBMC); endogenous in cells; host or cells: CD8+ T cells within healthy donor human PBMC. To be noted: 24 h. As to the method:
as §1, §2, §3

Test [2] addresses T1, IKZF3 Aiolos. The test can be described thus: Jurkat Cellular Degradation Assay (Aiolos). Set-up: endogenous in cells; host or cells: Jurkat cells. To be noted: Jurkat cells, 72 h. As for the experimental part: Jurkat cells were plated at 80,000 cells/well in 40 μL RPMI+10% FBS in a 384-well cell culture plate prior to using acoustic dispensing technology for adding a compound of interest. Cell cultures were incubated for 72 h at 37° C. and 5% CO2. In order to facilitate analysis, cell cultures were spun down at 200 rpm for 5 min and the supernatant was discarded. After shaking the plate to dislodge the cell pellet, cells were resuspended in 50 μL of Fixation Buffer (eBioscience FoxP3 buffer set 00-5523-00) for 60 min at room temperature. After centrifuging and discarding the supernatant, cells were permeabilized with 50 μL of Permeabilization buffer (eBioscience FoxP3 buffer set 00-5523-00) for 10 min at room temperature. Following permeabilization, cells were spun down and the supernatant was replaced with 20 μL fluorescently labelled antibodies against Helios, Ikaros and Aiolos or corresponding Isotype controls in 1× Permeabilization buffer (Ikaros-Alexa488 [Biolegend, Cat #368408, 1:50], Helios-PE [CST, Cat #29360, 1:50], Aiolos-Alexa647 [Biolegend, Cat #371106 Biolegend, 1:25]) and staining reactions were incubated for 1 h at room temperature while protected from light. Subsequently, 30 μL of 1× Permeabilization buffer was added prior to centrifuging the cells and discarding the supernatant. Stained cells were resuspended in 25 μL of flow cytometry staining buffer [PBS+0.2% bovine serum albumin (BSA)] and analyzed using an Intellicyt Ique Plus flow cytometer.
Table A-1 lists the maximum observed degradation of the IKZF1 protein, IKZF2 protein, and IKZF3 protein as measured in the Jurkat Cellular Degradation assay. The results in Table A-I were rounded to two digits. In the Jurkat Cellular Degradation assay, a value of 100% indicated no detectable protein remaining or complete degradation of the protein; and a value of 0% indicated no detectable degradation of the protein by the test compound.

The mark [3] stands for this setting: concentration reducing protein level by 50% compared to DMSO alone.

T1 sequence (Q9UKT9 whole entry): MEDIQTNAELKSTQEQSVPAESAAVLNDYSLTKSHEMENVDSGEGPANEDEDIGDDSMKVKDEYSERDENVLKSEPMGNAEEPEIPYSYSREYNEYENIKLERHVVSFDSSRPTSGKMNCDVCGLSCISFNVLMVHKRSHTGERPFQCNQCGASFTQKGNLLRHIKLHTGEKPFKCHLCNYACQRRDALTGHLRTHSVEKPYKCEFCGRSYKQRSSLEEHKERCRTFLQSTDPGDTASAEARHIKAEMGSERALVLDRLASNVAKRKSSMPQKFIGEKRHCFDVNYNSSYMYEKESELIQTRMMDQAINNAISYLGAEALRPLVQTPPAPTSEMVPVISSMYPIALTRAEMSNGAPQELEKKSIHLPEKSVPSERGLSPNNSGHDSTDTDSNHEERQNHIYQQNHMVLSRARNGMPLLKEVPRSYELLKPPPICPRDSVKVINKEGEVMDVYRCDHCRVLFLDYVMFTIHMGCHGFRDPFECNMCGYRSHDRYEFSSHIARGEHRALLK
T1 sequence (Q96SW2 whole entry): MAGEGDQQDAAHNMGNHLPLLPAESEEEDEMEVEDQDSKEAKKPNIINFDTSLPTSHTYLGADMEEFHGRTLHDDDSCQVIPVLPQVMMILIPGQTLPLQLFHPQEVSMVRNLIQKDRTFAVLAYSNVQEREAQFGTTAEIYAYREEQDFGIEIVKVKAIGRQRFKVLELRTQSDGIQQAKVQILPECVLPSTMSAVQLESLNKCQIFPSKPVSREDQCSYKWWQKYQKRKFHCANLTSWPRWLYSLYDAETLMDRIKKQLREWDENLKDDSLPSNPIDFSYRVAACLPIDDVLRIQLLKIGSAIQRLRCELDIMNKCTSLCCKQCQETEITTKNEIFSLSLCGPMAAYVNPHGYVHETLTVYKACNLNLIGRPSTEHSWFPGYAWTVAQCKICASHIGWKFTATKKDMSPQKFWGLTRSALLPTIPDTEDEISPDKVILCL
T1 sequence (Q16531 whole entry partner): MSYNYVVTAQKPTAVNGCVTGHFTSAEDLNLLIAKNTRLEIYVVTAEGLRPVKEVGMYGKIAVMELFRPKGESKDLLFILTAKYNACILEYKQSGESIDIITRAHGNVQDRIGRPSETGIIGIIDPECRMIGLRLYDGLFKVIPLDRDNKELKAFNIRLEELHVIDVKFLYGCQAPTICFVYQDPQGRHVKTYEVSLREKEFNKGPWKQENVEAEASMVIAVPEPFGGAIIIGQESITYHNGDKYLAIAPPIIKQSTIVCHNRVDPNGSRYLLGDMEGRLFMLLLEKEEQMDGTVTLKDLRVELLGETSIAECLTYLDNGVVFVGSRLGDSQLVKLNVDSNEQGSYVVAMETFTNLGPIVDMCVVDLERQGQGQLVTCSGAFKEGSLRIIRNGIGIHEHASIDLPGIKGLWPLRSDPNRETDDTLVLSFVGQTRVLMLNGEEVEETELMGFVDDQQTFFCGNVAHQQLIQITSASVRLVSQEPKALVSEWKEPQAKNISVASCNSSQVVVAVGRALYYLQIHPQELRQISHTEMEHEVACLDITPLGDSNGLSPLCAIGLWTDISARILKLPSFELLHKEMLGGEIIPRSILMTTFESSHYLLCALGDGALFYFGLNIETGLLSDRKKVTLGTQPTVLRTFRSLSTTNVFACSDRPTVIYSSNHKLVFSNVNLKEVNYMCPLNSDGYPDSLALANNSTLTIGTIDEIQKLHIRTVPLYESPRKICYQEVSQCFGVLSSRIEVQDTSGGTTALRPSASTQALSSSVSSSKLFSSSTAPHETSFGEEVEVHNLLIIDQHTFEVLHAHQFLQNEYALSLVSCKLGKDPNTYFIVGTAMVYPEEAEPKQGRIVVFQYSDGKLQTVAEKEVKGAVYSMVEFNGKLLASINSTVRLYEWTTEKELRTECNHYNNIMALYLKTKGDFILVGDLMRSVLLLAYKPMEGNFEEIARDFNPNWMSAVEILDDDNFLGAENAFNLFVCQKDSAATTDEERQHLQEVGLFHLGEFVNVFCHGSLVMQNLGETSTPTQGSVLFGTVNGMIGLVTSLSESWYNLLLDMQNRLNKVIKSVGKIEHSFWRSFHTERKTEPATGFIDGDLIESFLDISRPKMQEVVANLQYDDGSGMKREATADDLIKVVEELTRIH
Sequence of IKZF1 Ikaros (Q13422 whole entry): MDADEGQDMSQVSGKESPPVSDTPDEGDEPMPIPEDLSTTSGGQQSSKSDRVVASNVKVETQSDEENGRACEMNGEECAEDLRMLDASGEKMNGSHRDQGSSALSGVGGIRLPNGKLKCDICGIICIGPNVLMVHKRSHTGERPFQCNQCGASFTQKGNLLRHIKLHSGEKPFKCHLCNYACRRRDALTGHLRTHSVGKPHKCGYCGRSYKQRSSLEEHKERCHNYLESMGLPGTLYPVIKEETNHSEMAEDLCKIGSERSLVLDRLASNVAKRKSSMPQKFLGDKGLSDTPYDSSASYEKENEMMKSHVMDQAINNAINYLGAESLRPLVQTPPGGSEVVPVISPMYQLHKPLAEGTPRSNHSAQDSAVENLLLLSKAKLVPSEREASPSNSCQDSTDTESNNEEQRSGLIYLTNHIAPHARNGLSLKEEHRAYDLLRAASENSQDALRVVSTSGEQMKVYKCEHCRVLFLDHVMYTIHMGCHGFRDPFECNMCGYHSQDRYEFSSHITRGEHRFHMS
Sequence of IKZF1 Ikaros (Q96SW2 whole entry): as the sequence (Q96SW2 whole entry) above
Sequence of IKZF1 Ikaros (Q16531 whole entry partner): as the sequence (Q16531 whole entry partner) above

`Nc1nc(-c2ccc3c(c2F)CN(C2CCC(=O)NC2=O)C3=O)ccc1CN1CC(C2CCC(F)(F)CC2)C1` (centres unmarked) [Example 1, 3-(5-(6-Amino-5-((3-(4,4-difluorocyclohexyl)azetidin-1-yl)methyl)pyridin-2-yl)-4-fluoro-1-oxoisoindolin-2-yl) piperidine-2,6-dione]: the DC50 – broadly, the concentration at which degradation of the target reaches its halfway point – was 35 to 44 nM on IKZF1 Ikaros (setting [3]); 33 to 36 nM on IKZF3 Aiolos [1] (CD8+ T cells, human PBMC, concentration reducing protein level by 50% compared to DMSO alone); above 10000 nM at IKZF3 Aiolos [2] (setting [3]). The Dmax at IKZF1 Ikaros (read-out: IKZF1 Ikaros Maximum Observed Degradation) is 86%; on IKZF3 Aiolos [1] (summary table, Human CD8+ T Cell Reprogramming Assay (Table D-1), read-out: IKZF3 Aiolos max % deg. observed (Table E)), 80 to 84%; on IKZF3 Aiolos [1] (CD8+ T cells, human PBMC, read-out: IKZF3 Aiolos Maximum Observed Degradation), 80 to 84%; on IKZF3 Aiolos [1] (human, text summary of Table D-1, read-out: decreased the level of IKZF3 (Aiolos)), at least 80%; on IKZF3 Aiolos [2] (human, read-out: IKZF3 Aiolos max % deg. observed), 48%.
